Each structure is given as a SMILES string. Like-named read-outs stand apart in the source and are kept apart here.

These results are taken from patent publication US10898481B2 (priority 2018, dated 2021).

The target of assay [1] is mA2a/CHO (Mus musculus (Mouse), UniProt Q60613). The experiment in a line: cAMP inhibition assay in mA2a/CHO cells, 10 μM adenosine.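 Also: compounds preincubated 30 min at 37 °C before the adenosine challenge, then 30 min further stimulation, readout after 60 min detection reagent incubation at room temperature in 384-well plates.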 It is filed as cell-based. The following applies: read-out: cAMP & FLIPR IC50 (nM) mA2a.
The target in assay [2] is hA2a/CHO (Homo sapiens (Human), UniProt P29274). In words: cAMP inhibition assay in hA2a/CHO cells, 10 μM adenosine.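 Also: compounds added to cells 30 min ahead of adenosine, then a further 30 min at 37 °C with adenosine before cAMP detection.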 It is filed as cell-based. The following applies: read-out: cAMP & FLIPR IC50 (nM) hA2a.
The target in assay [3] is hA2a (Homo sapiens (Human), UniProt P29274). The experiment in a line: Radioligand binding to hA2a membrane with [3H]-CGS21680. The following applies: read-out: Binding Affinity (IC50 nM) hA2a. An excerpt:
(§1) The empty boxes in the tables below indicate data not collected yet.

Assay [4] deals with hADORA1/CHO (hA1 expressing) cells (Homo sapiens (Human), UniProt P30542). The experiment in a line: cell-based. The following applies: 10 μM adenosine.
Assay [5] has as its target hA2b/CHO (Homo sapiens (Human), UniProt P29275). In words: cAMP inhibition assay in hA2b/CHO cells, 10 μM adenosine.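 Also: cells exposed to compound 30 min at 37 °C, then stimulated with adenosine a further 30 min, cAMP read after 60 min at room temperature.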 The following applies: read-out: cAMP & FLIPR IC50 (nM) hA2b. It is filed as cell-based.
The target of assay [6] is hA3/CHO (Homo sapiens (Human), UniProt P0DMS8). The experiment in a line: cell-based. On the procedure:
hA2a/CHO, hA2b/CHO, hA3/CHO and mA2a/CHO (Genscript) were plated at 5×10^3 cells/well into 384-well polystyrene plates at the day of experiment. Compounds were pre-incubated with cells for 30 min at 37° C., 5% CO2. Then 10 μM adenosine was added to the cells and incubated for 30 min at 37° C., 5% CO2. Detection reagent (CISBIO) was added and the plates were incubated for 60 min at room temperature. The signal was captured by Envision.

In assay [7] the target is hA1 (Homo sapiens (Human), UniProt P30542). The following applies: hA1 membrane, [3H]-DPCPX; read-out: Binding Affinity (IC50 nM) hA1.
Source text: as §1

Setting [8] is: FLIPR inhibition, read-out: cAMP & FLIPR IC50 (nM) hA1.
The mark [9] stands for this setting: cAMP & FLIPR IC50 (nM) hA1, FLIPR inhibition.

hADORA1/CHO (hA1 expressing) cells, sequence (P30542 whole entry): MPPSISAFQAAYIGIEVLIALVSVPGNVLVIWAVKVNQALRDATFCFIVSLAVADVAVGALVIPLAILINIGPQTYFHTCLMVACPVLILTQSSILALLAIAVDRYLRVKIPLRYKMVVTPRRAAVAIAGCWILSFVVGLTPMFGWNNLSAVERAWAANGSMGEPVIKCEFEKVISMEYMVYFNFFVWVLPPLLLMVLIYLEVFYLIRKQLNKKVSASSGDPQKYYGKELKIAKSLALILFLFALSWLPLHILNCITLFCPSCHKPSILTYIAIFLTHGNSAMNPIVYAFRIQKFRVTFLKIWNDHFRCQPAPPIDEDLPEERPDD
hA1, sequence (P30542 whole entry): as above
mA2a/CHO, sequence (Q60613 whole entry): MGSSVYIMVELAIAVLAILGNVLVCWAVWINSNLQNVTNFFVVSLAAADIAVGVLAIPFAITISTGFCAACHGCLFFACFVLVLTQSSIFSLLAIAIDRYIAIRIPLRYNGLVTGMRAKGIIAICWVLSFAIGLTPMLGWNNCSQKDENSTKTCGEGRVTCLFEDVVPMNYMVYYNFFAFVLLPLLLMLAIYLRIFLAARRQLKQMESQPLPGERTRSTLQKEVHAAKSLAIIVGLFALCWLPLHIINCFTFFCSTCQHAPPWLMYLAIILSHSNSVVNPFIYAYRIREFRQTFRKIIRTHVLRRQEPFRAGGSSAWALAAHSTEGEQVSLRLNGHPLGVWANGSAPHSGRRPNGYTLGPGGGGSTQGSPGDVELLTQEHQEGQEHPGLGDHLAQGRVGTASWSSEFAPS
hA2b/CHO, sequence (P29275 whole entry): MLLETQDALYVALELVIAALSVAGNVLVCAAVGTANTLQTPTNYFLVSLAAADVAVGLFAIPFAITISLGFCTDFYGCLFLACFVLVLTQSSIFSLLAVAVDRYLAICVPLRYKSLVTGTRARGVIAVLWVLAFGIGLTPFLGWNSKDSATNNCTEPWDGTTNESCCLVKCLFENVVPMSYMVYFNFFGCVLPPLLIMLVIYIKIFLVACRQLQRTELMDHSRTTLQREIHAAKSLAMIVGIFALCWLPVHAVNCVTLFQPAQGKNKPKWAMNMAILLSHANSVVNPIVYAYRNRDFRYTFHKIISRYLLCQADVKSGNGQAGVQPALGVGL
hA3/CHO, sequence (P0DMS8 whole entry): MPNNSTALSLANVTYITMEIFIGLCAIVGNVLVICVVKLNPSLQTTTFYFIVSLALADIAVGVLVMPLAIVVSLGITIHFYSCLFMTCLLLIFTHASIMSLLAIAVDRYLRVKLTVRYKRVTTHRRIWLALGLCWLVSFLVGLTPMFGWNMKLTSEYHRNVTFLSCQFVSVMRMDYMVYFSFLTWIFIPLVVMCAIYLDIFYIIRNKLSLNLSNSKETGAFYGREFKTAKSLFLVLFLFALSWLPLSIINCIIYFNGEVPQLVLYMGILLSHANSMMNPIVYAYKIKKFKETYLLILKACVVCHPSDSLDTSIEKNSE
hA2a, sequence (P29274 whole entry): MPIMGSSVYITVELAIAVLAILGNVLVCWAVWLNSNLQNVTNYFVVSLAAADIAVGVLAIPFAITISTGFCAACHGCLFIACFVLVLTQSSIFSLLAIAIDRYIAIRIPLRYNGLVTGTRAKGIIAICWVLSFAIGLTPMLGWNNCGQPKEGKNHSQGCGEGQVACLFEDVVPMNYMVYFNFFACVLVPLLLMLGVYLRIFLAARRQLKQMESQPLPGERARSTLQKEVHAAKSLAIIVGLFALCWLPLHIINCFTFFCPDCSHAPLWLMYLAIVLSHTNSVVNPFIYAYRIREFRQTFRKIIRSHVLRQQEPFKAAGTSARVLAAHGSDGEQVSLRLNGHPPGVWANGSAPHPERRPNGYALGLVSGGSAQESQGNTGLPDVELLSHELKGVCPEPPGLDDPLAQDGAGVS
hA2a/CHO, sequence (P29274 whole entry): as above

On to `Nc1nc(-c2ncco2)c(-c2ccc3nncn3c2)nc1C(=O)NCc1c(F)cccc1F` [Example 34, 6-([1,2,4]triazolo[4,3-a]pyridin-6-yl)-3-amino-N-(2,6-difluorobenzyl)-5-(oxazol-2-yl)pyrazine-2-carboxamide], for which the IC50 was 192 nM in assay [1]; 63 nM in assay [2]; 3.7 nM in assay [3]; 10000 nM in assay [4] (setting [8]); 330 nM in assay [5]; no less than 10000 nM in assay [6].

With `Cn1cc(-c2nc(C(=O)NCc3nc(N)ccc3F)c(N)nc2-c2ncco2)ccc1=O` [Example 49, 3-amino-N-((6-amino-3-fluoropyridin-2-yl)methyl)-6-(1-methyl-6-oxo-1,6-dihydropyridin-3-yl)-5-(oxazol-2-yl)pyrazine-2-carboxamide], the IC50 in assay [7] was determined as 117 nM; in assay [4] (setting [9]) it was 1710 nM.

As to `Cn1cc(-c2nc(C(=O)NCc3c(F)cccc3F)c(N)nc2-n2nccn2)ccc1=O` [Example 35, 3-amino-N-(2,6-difluorobenzyl)-6-(1-methyl-6-oxo-1,6-dihydropyridin-3-yl)-5-(2H-1,2,3-triazol-2-yl)pyrazine-2-carboxamide], the IC50 is 43 nM in assay [1]; 15 nM in assay [2]; 3.2 nM in assay [3]; 112 nM in assay [4] (setting [8]); 203 nM in assay [5]; no less than 10000 nM in assay [6].

Consider `CN(C)c1ccc(F)c(CNC(=O)c2nc(-c3ccc(=O)n(C)c3)c(-c3ncco3)nc2N)c1` [Example 27, 3-amino-N-(5-(dimethylamino)-2-fluorobenzyl)-6-(1-methyl-6-oxo-1,6-dihydropyridin-3-yl)-5-(oxazol-2-yl)pyrazine-2-carboxamide], for which the IC50 in assay [1] is 177 nM; in assay [2] it was 60 nM; in assay [4] (setting [8]), 1770 nM; in assay [5] it was no less than 10000 nM; in assay [6], no less than 10000 nM.

As to `Cc1scnc1CNC(=O)c1nc(-c2ccc(=O)n(C)c2)c(-c2ncco2)nc1N` [Example 22, 3-amino-6-(1-methyl-6-oxo-1,6-dihydropyridin-3-yl)-N-((5-methylthiazol-4-yl)methyl)-5-(oxazol-2-yl)pyrazine-2-carboxamide], the IC50 in assay [1] was 132 nM; in assay [2], 60 nM; in assay [3], 3.5 nM; in assay [4] (setting [8]) it was 3380 nM; in assay [5], 2550 nM; in assay [6], no less than 10000 nM.

For `Nc1nc(-c2ncco2)c(-c2ccc(=O)n(C(F)F)c2)nc1C(=O)NCc1ncccc1F` [Example 31, 3-amino-6-[1-(difluoromethyl)-6-oxo-1,6-dihydropyridin-3-yl]-N-[(3-fluoropyridin-2-yl)methyl]-5-(1,3-oxazol-2-yl)pyrazine-2-carboxamide], the IC50 is 75 nM in assay [1]; 34 nM in assay [2]; 35 nM in assay [4] (setting [8]); 164 nM in assay [5]; no less than 10000 nM in assay [6].

Consider `Cc1cnc2ccc(-c3nc(C(=O)NCc4ncccc4F)c(N)nc3-c3ncco3)cn12` [Example 101, 3-amino-N-((3-fluoropyridin-2-yl)methyl)-6-(3-methylimidazo[1,2-a]pyridin-6-yl)-5-(oxazol-2-yl)pyrazine-2-carboxamide], for which the IC50 in assay [7] came out at 5.6 nM; in assay [4] (setting [8]) it was 45 nM.

For `Cc1cc(-c2nc(C(=O)NCc3cccc(N(C)C)n3)c(N)nc2-c2ccc(F)cc2)ccn1` [Example 12, 3-amino-N-((6-(dimethylamino)pyridin-2-yl)methyl)-5-(4-fluorophenyl)-6-(2-methylpyridin-4-yl)pyrazine-2-carboxamide], the IC50 amounted to 678 nM in assay [1]; 36 nM in assay [2]; 414 nM in assay [4] (setting [8]); 9030 nM in assay [5]; 6940 nM in assay [6].

Turning to `Nc1nc(-c2ncco2)c(-c2ccc3[nH]cnc3c2)nc1C(=O)NCc1ncccc1F` [Example 47, 3-amino-6-(1H-1,3-benzodiazol-5-yl)-N-[(3-fluoropyridin-2-yl)methyl]-5-(1,3-oxazol-2-yl)pyrazine-2-carboxamide], the figures for the IC50 in assay [7] and in assay [4] (setting [9]) were 696 nM and 10000 nM, respectively.

As for `Cn1cc(-c2nc(C(=O)NCc3ncccc3F)c(N)nc2-c2ncco2)ccc1=O` [Example 14, 3-amino-N-((3-fluoropyridin-2-yl)methyl)-6-(1-methyl-6-oxo-1,6-dihydropyridin-3-yl)-5-(oxazol-2-yl)pyrazine-2-carboxamide], the IC50 in assay [1] is 213 nM; in assay [2], 98 nM; in assay [3] it was 3.1 nM; in assay [4] (setting [8]) it was 10000 nM; in assay [5] it was 768 nM; in assay [6] it was no less than 10000 nM.

As for `Cn1cc(-c2nc(C(=O)NCc3cccc(N4CCCC4)n3)c(N)nc2-c2ncco2)ccc1=O` [Example 28, 3-amino-6-(1-methyl-6-oxo-1,6-dihydropyridin-3-yl)-5-(1,3-oxazol-2-yl)-N-[[6-(pyrrolidin-1-yl)pyridin-2-yl]methyl]pyrazine-2-carboxamide], the concentration for half-maximal inhibition (IC50) is 160 nM in assay [1]; 129 nM in assay [2]; 4900 nM in assay [4] (setting [8]); no less than 10000 nM in assay [5]; no less than 10000 nM in assay [6].

Take `Cn1cc(-c2nc(C(=O)NCc3cccc(N)n3)c(N)nc2-c2ncco2)ccc1=O` [Example 24, 3-amino-N-[(6-aminopyridin-2-yl)methyl]-6-(1-methyl-6-oxo-1,6-dihydropyridin-3-yl)-5-(1,3-oxazol-2-yl)pyrazine-2-carboxamide]: the IC50 in assay [1] was 641 nM; in assay [2], 199 nM; in assay [3], 11 nM; in assay [4] (setting [8]) it was 9360 nM; in assay [5], 1460 nM; in assay [6] it was no less than 10000 nM.

Consider `Cn1cc(-c2nc(C(=O)NCc3c(F)cccc3F)c(N)nc2-c2ccc(F)cc2)ccc1=O` [Example 29, 3-amino-N-[(2,6-difluorophenyl)methyl]-5-(4-fluorophenyl)-6-(1-methyl-6-oxo-1,6-dihydropyridin-3-yl)pyrazine-2-carboxamide], for which the IC50 in assay [1] is 60 nM; in assay [2], 6.8 nM; in assay [3], 2.3 nM; in assay [4] (setting [8]), 66 nM; in assay [5], 103 nM; in assay [6] it was no less than 10000 nM.

For `CC(NC(=O)c1nc(-c2ccc(=O)n(C)c2)c(-c2ncco2)nc1N)c1c(F)cccc1F` (stereo not drawn) [Example 20, 3-amino-N-(1-(2,6-difluorophenyl)ethyl)-6-(1-methyl-6-oxo-1,6-dihydropyridin-3-yl)-5-(oxazol-2-yl) pyrazine-2-carboxamide], the IC50 in assay [1] is 170 nM; in assay [2] it was 41 nM; in assay [4] (setting [8]) it was 6610 nM; in assay [5] it was 3600 nM; in assay [6], no less than 10000 nM.

Take `COc1ccccc1CNC(=O)c1nc(-c2cc(C)nc(C)c2)c(-c2ccc(C)o2)nc1N` [Example 61, 3-amino-6-(2,6-dimethylpyridin-4-yl)-N-(2-methoxybenzyl)-5-(5-methylfuran-2-yl)pyrazine-2-carboxamide]: the IC50 is 6 nM in assay [1]; 0.6 nM in assay [2]; 52 nM in assay [7]; 7.9 nM in assay [3]; no less than 10000 nM in assay [5].

Consider `Cc1cc(-c2nc(C(=O)NCc3cccc(N(C)C)n3)c(N)nc2-c2ccc(F)cc2)cc(C)n1` [Example 9, 3-amino-N-[[6-(dimethylamino)pyridin-2-yl]methyl]-6-(2,6-dimethylpyridin-4-yl)-5-(4-fluorophenyl)pyrazine-2-carboxamide], for which the IC50 in assay [1] is 25 nM; in assay [2] it was 5.4 nM; in assay [4] (setting [8]), 1000 nM; in assay [5], no less than 10000 nM; in assay [6], no less than 10000 nM.

As to `CN(C)c1cccc(CNC(=O)c2nc(-c3ccc(=O)n(C)c3)c(-c3ccc(F)cc3)nc2N)n1` [Example 13, 3-amino-N-[[6-(dimethylamino)pyridin-2-yl]methyl]-5-(4-fluorophenyl)-6-(1-methyl-6-oxo-1,6-dihydropyridin-3-yl)pyrazine-2-carboxamide], the IC50 in assay [1] was 51 nM; in assay [2], 6.1 nM; in assay [4] (setting [8]), 72 nM; in assay [5] it was 4640 nM; in assay [6] it was no less than 10000 nM.

For `CN(C)c1cccc(CNC(=O)c2nc(-c3ccc(=O)n(C)c3)c(-c3ncco3)nc2N)c1F` [Example 33, 3-amino-N-(3-(dimethylamino)-2-fluorobenzyl)-6-(1-methyl-6-oxo-1,6-dihydropyridin-3-yl)-5-(oxazol-2-yl)pyrazine-2-carboxamide], the IC50 in assay [1] is 123 nM; in assay [2] it was 56 nM; in assay [4] (setting [8]), 3030 nM; in assay [5], no less than 10000 nM; in assay [6] it was no less than 10000 nM.

One may read the IC50 as the point on the concentration scale where inhibition reaches its midpoint.
